These results are taken from patent publication US12617870B2, “Methods of reversing ticagrelor activity” (SFJ Pharmaceuticals X, LTD., priority 2018, dated 2026).

Test system in one series: not given
Assay: not given
The following applies: PLATO, patients with ACS, both treatment groups; cited from earlier work.
In the case of `COC(=O)[C@H](c1ccccc1Cl)N1CCc2sccc2C1` [clopidogrel], the “patients with fatal or life-threatening major bleeding events” value is 5.8%.

Another series concerns PB2452 binding to biotinylated ticagrelor. Put plainly: Selectivity: competition binding with PB2452 to biotinylated ticagrelor. Also on record: species or system human.
Conditions: not given
Here is the method:
The chemical starting point for the development of ticagrelor was adenosine triphosphate (ATP), and ticagrelor retains an adenosine-like core. To confirm the specificity of PB2452 for ticagrelor and ticagrelor active metabolite (TAM), its binding to ATP, ADP, and adenosine was evaluated. […] The selectivity of PB2452 was determined by competition binding with PB2452 to biotinylated ticagrelor.
For `CC[C@H](C)C(=O)O[C@H]1C[C@@H](C)C=C2C=C[C@H](C)[C@H](CC[C@@H]3C[C@@H](O)CC(=O)O3)[C@H]21` [lovastatin], the “inhibition of PB2452 binding to biotinylated ticagrelor” value (“inhibition of PB2452 binding” below) was “No inhibition”.

On to `O=C1CCc2cc(OCCCCc3nnnn3C3CCCCC3)ccc2N1` [cilostazol], for which the “inhibition of PB2452 binding” value was “No inhibition”.

In the case of `Nc1ncnc2c1ncn2[C@@H]1O[C@H](CO)[C@@H](O)[C@H]1O` [adenosine], the “inhibition of PB2452 binding” value was “No inhibition”.

As to `CC1(C)C(C=C(Cl)Cl)C1C(=O)OC(C#N)c1ccc(F)c(Oc2ccccc2)c1` (stereo not shown) [cyfluthrin], the “inhibition of PB2452 binding” value was “No inhibition”.

Take `NS(=O)(=O)c1cc2c(cc1Cl)NC(C1CC3C=CC1C3)NS2(=O)=O` (stereo not shown) [cyclothiazide]: the “inhibition of PB2452 binding” value is reported as “No inhibition”.

`CNC(=O)c1cnn(-c2nc(N)c3ncn([C@@H]4O[C@H](CO)[C@@H](O)[C@H]4O)c3n2)c1` [regadenoson]: the “inhibition of PB2452 binding” value is “No inhibition”.

As to `CSCCNc1nc(SCCC(F)(F)F)nc2c1ncn2[C@@H]1O[C@H](COP(=O)(O)OP(=O)(O)C(Cl)(Cl)P(=O)(O)O)[C@@H](O)[C@H]1O` [cangrelor], the “inhibition of PB2452 binding” value is given as “No inhibition”.

Take `CC(=O)NC[C@H]1CN(c2ccc(N3CCOCC3)c(F)c2)C(=O)O1` [linezolid]: the “inhibition of PB2452 binding” value is “No inhibition”.

Turning to `Nc1ncnc2c1ncn2[C@@H]1O[C@H](COP(=O)(O)OP(=O)(O)OP(=O)(O)O)[C@@H](O)[C@H]1O` [ATP, adenosine triphosphate], the “inhibition of PB2452 binding” value is on record as “No inhibition”.

Regarding `Nc1ncnc2c1ncn2[C@@H]1O[C@H](COP(=O)(O)OP(=O)(O)O)[C@@H](O)[C@H]1O` [ADP, adenosine diphosphate], the “inhibition of PB2452 binding” value is “No inhibition”.

For `COC(=O)C1=C(C#N)NC(C)=C(C(=O)OC(C)C)C1c1cccc([N+](=O)[O-])c1` (stereo not shown) [nilvadipine], the “inhibition of PB2452 binding” value is reported as “No inhibition”.

Take `CCCC(=O)Nc1ncnc2c1ncn2[C@@H]1O[C@@H]2COP(=O)(O)O[C@H]2[C@H]1OC(=O)CCC` [bucladesine]: the “inhibition of PB2452 binding” value was “No inhibition”.
